Some test systems named below: LXFL 529 NSCLC; 786-0 renal; XF 498 CNS; SNB-78 CNS; P388/ADR leukemia; KM20L2 colon; SN12K1 renal; P388 leukemia.
Common to all, as to assay: NCI tumour cell line growth inhibition, 48 h

Data on eight molecules can be found in PubChem BioAssay (NCI).

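All cell lines were grown in 96-well plates and treated with compound for 48 hours. TGI is the concentration that stops growth completely.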 Bounds are passed on as bounds.

In the case of `C=C(C)[C@H]1Cc2c(ccc3c2O[C@@H]2COc4cc(OC)c(OC)cc4[C@@H]2C3=O)O1`, the TGI was 7.87 µM in the assay with LXFL 529 NSCLC, more than 86.2 µM in the assay on 786-0 renal, 0.302 µM in the assay with XF 498 CNS and 45.3 µM in the assay on SNB-78 CNS.
Regarding `CCOC(=O)CNC(=O)N(CC)C12CC3CC(CC(C3)C1)C2`, the TGI in the assay with P388/ADR leukemia is 421 µM; with KM20L2 colon, 223 µM; in the assay with XF 498 CNS, 342 µM; in the assay with SNB-78 CNS it was 474 µM; in the assay on SN12K1 renal, 181 µM; in the assay on P388 leukemia, 260 µM.
With `CC1CC2=C(S(=O)(=O)c3ccccc3)CC(S(=O)(=O)c3ccccc3)(S(=O)(=O)c3ccccc3)CC21` (configuration not stated), the TGI in the assay on KM20L2 colon and in the assay on XF 498 CNS was more than 100 µM each time.
In the assay on 786-0 renal, `COCc1nc2c(OC)c(-c3nc4nc(N5CCN(C)CC5)ccc4[nH]3)cc(OC)c2n1C` registered a TGI of more than 100 µM.
For the molecule `C/C(=N/NC(N)=S)c1ccc[nH]1`, the TGI with 786-0 renal was more than 100 µM.
For `COc1ccc(S(=O)(=O)c2ccccc2[N+](=O)[O-])cc1`, the TGI in the assay with LXFL 529 NSCLC and in the assay on KM20L2 colon was more than 100 µM each time.
On to `CC(=O)Nc1ccc(/C=C/c2ccc(NC(=O)Nc3ccc(/C=C/c4ccc(NC(C)=O)cc4S(=O)(=O)O)c(S(=O)(=O)O)c3)cc2S(=O)(=O)O)c(S(=O)(=O)O)c1`, for which the TGI in the assay with KM20L2 colon, in the assay with XF 498 CNS, in the assay with SNB-78 CNS, with SN12K1 renal and in the assay on P388 leukemia was more than 100 µM in each case.
As for `CCOC(=O)c1ccc(N[C@@H]2c3cc4c(cc3C(c3cc(OC)c(O)c(OC)c3)[C@H]3C(=O)OCC32)OCO4)cc1O` (some centres not stated), the TGI is 0.324 µM in the assay on P388/ADR leukemia; more than 22.3 µM in the assay with KM20L2 colon; 16.9 µM in the assay on XF 498 CNS; more than 100 µM with SNB-78 CNS; 11.3 µM in the assay with SN12K1 renal; 0.902 µM in the assay with P388 leukemia.
